Numbered stars: 1 amine (or outer) side, 2 acyl side, 3 side chain; on linkers, the order of the positions; unused ones are H or OH. Bridge positions count the residues as written; N and C are the ends. Square brackets hold non-standard residues; d marks the D form. Peptide text beside a SMILES is read from it. * marks the point of attachment. C20 diacid = O=C(O)CCCCCCCCCCCCCCCCCCC(=O)*; γGlu = O=C(O)[C@H](CCC(=O)[*:2])N[*:1]; Hyp = O=C(O)[C@@H]1C[C@@H](O)CN1; NMeI = CC[C@H](C)[C@H](NC)C(=O)O; Aad = N[C@@H](CCCC(=O)O)C(=O)O; Sar = CNCC(=O)O

Data set [1] can be described thus: Assessment of chemical stability in 40 mM buffers at 40° C. (RP-HPLC). The format is physicochemical. As to conditions: 1 mg/mL; for % degradation after 72 h at 40° C. pH4 acetate: acetate buffer pH 4, 72 h; for % degradation after 72 h at 40° C. pH6 phosphate: phosphate buffer pH 6, 72 h; for % degradation after 14 days at 40° C. pH6 phosphate: phosphate buffer pH 6, 14 days; for % degradation after 72 h at 40° C. pH7 phosphate: phosphate buffer pH 7, 72 h; for % degradation after 14 days at 40° C. pH7 phosphate: phosphate buffer pH 7, 14 days. The method, boiled down:
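Peptides at 1 mg/mL in 40 mM acetate pH 4 or phosphate pH 6 and 7 were held at 40° C for 3 and 14 days. Main-peak area-% by C8 RP-HPLC, UV 220 nm; % degradation = change in main-peak area-% versus t=0.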

In data set [2] the target is T1, recombinant human calcitonin receptor (hCT-R) (Homo sapiens, UniProt P30988).
T1 construct: host or cells: human astrocytoma cell line 1321N1
T1 sequence (P30988 25-474): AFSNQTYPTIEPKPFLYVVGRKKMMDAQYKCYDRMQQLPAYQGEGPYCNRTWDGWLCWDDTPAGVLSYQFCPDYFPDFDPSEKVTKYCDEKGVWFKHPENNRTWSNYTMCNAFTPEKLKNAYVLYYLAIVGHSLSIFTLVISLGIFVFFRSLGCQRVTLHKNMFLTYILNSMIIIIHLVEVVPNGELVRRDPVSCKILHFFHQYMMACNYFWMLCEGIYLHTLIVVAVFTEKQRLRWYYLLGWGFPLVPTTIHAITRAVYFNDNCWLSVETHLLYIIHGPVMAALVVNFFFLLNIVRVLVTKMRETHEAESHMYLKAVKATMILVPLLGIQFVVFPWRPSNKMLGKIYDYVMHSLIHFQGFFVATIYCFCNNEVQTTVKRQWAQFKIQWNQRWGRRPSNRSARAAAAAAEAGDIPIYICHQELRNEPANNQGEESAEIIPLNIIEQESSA
Put plainly: hCT-R cAMP assay (AlphaScreen) in 1321N1 cells. The following applies: cAMP formation, 45 min stimulation. The format is cell-based. The gist of the method: (§1)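 1321N1 astrocytoma cells expressing recombinant human calcitonin receptor alone or with RAMP3 (AMY3) stimulated 45 min at room temperature with peptide in IBMX-containing buffer. cAMP quantified by AlphaScreen after 1 h bead incubation; EC50 fitted from at least 7 concentrations.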

Data set [3] concerns the target T2, recombinant human amylin 3 receptor (hAMYR3) (Homo sapiens, UniProt O60896+P30988).
T2 construct: host or cells: human astrocytoma cell line 1321N1
T2 sequence (P30988 25-474): T1 sequence (P30988 25-474)
T2 sequence (O60896 24-148 partner): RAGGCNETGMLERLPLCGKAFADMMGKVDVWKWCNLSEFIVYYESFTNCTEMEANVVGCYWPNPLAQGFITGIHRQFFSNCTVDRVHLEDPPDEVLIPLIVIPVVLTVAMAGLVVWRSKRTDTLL
Put plainly: hAMYR3 cAMP assay (AlphaScreen) in 1321N1 cells. As to conditions: cAMP formation, 45 min stimulation. The format is cell-based. The method, boiled down:
as §1

Data set [4] in a line: Assessment of physical stability: fibril formation by Thioflavin T fluorescence. The following applies: 1 mg/mL peptide; for Fibrillation (in buffer) pH4 acetate: 50 mM acetate buffer pH 4.0, 96 hours at 40° C.; for Fibrillation (in buffer) pH7 histidine: 50 mM histidine buffer pH 7.0, 96 hours at 40° C.; for Fibrillation (in buffer) pH7 phosphate: 50 mM phosphate buffer pH 7.0, 96 hours at 40° C. Details: key: FND = fibrillation not detected; FD = fibrillation detected. The format is physicochemical. The gist of the method:
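Test peptide at 1 mg/mL with 40 μM ThT in 50 mM phosphate pH 7.0, 50 mM histidine pH 7.0, or 50 mM acetate pH 4.0, in triplicate. Fluorescence read every 10 min after 300 s agitation for 96 hours at 40° C; significant intensity rise scored as fibrillation detected (FD).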

Data set [5] can be described thus: Effect on acute food intake and body weight in normal Sprague Dawley rats. The format is in vivo, Sprague Dawley (SD) rats. The following applies: vehicle-corrected. An excerpt:
Sprague Dawley (SD) rats were obtained from Janvier Labs, France. The animals arrived at least 14 days before the study start to allow acclimatization to experimental conditions. From arrival and throughout the study, the rats were housed in groups of 2 to 4 (n=2-4) in a light-, temperature- and humidity-controlled room. Animals had access ad libitum to food (KLIBA 3430, Provimi Kliba AG, Switzerland) and water (domestic quality tap water) during the entire study. Per group 6-8 rats were included. A vehicle group and positive control group were included in each set of tests. […] Dosing volume was 2 ml/kg. Food intake was recorded online using an automated food intake system (HM02, MBRose, Denmark) for 4 days or manually at 0 h for a predose and then 24, 48, 72 and 96 h post dosing. Body weight was measured daily.
Statistical analyses were performed using GraphPad™ Prism version 7. The measured parameters were compared using two-way ANOVA followed by Dunnett's multiple comparison tests. Differences were considered statistically significant at p<0.05.

A word on the EC50: it is the concentration giving half of the maximal effect. Consider `CC[C@H](C)[C@@H](C(=O)N[C@@H](CC(C)C)C(=O)N[C@@H](CO)C(=O)N[C@@H](CO)C(=O)N[C@H](C(=O)N[C@@H](CCC(=O)O)C(=O)N[C@H](C(=O)NCC(=O)N[C@@H](CO)C(=O)N[C@@H](CC(N)=O)C(=O)N[C@H](C(=O)N1C[C@H](O)C[C@H]1C(N)=O)[C@@H](C)O)[C@@H](C)O)[C@@H](C)O)N(C)C(=O)[C@H](C)NC(=O)CN(C)C(=O)[C@H](Cc1ccccc1)NC(=O)[C@H](CO)NC(=O)[C@H](CO)NC(=O)[C@H](CCCNC(=N)N)NC(=O)[C@H](CCC(N)=O)NC(=O)[C@H](CC(C)C)NC(=O)[C@H](Cc1ccccc1)NC(=O)[C@H](CCCC(=O)O)NC(=O)[C@H](C)NC(=O)[C@H](CC(C)C)NC(=O)[C@H](CCCNC(=N)N)NC(=O)[C@H](CCC(=O)O)NC(=O)[C@@H](NC(=O)[C@H](C)NC(=O)[C@@H]1CCCCNC(=O)C[C@H](NC(=O)[C@H](CCCNC(=N)N)NC(=O)CC[C@H](NC(=O)CCCCCCCCCCCCCCCCCCC(=O)O)C(=O)O)C(=O)NCC(=O)N[C@@H]([C@@H](C)O)C(=O)N[C@@H](C)C(=O)N[C@@H]([C@@H](C)O)C(=O)N1)[C@@H](C)O` [Compound 36, [19CD]-isoGlu-RD()GTATK()ATERLA-Aad-FLQRSSF-Gly(Me)-A-Ile(Me)-LSSTETGSNT-Hyp-NH2] ({C20 diacid-γGlu}-RDGTATKATERLA[Aad]FLQRSSF[Sar]A[NMeI]LSSTETGSNT[Hyp]-NH2; lactam 2-7), for which, in data set [1], the “% degradation after 72 h at 40° C. pH4 acetate” value came to 2.5%, the “% degradation after 72 h at 40° C. pH6 phosphate” value is recorded as 2.1%, the “% degradation after 14 days at 40° C. pH6 phosphate” value is recorded as 1.6% and the “% degradation after 72 h at 40° C. pH7 phosphate” value is 1.0%. Moreover, the “% degradation after 14 days at 40° C. pH7 phosphate” value in data set [1] is listed as less than 1%. Besides, the EC50 in data set [2] was determined as 0.026 nM. In addition, the EC50 in data set [3] was 0.007 nM. Also, in data set [4], the “Fibrillation (in buffer) pH4 acetate” value is recorded as “FD”, the “Fibrillation (in buffer) pH7 histidine” value is listed as “FND” and the “Fibrillation (in buffer) pH7 phosphate” value is on record as “FND”. In data set [5] (at dose of 10 nmol/kg sc), the “Body weight reduction in % at 48 h” value is 5.2% and the “Food intake reduction in % at 48 h” value is on record as 44%.
Regarding `CC[C@H](C)[C@@H](C(=O)N[C@@H](CC(C)C)C(=O)N[C@@H](CO)C(=O)N[C@@H](CO)C(=O)N[C@H](C(=O)N[C@@H](CCC(=O)O)C(=O)N[C@H](C(=O)NCC(=O)N[C@@H](CO)C(=O)N[C@@H](CC(N)=O)C(=O)N[C@H](C(=O)N1C[C@H](O)C[C@H]1C(N)=O)[C@@H](C)O)C(C)C)[C@@H](C)O)N(C)C(=O)[C@H](C)NC(=O)CN(C)C(=O)[C@H](Cc1ccccc1)NC(=O)[C@H](CO)NC(=O)[C@H](CO)NC(=O)[C@H](CCCNC(=N)N)NC(=O)[C@H](CCC(N)=O)NC(=O)[C@H](CC(C)C)NC(=O)[C@H](Cc1ccccc1)NC(=O)[C@H](CCCC(=O)O)NC(=O)[C@H](C)NC(=O)[C@H](CC(C)C)NC(=O)[C@H](CCCNC(=N)N)NC(=O)[C@H](CCC(=O)O)NC(=O)[C@@H](NC(=O)[C@H](C)NC(=O)[C@@H]1CCCCNC(=O)C[C@H](NC(=O)[C@H](CCC(=O)O)NC(=O)CC[C@H](NC(=O)CCCCCCCCCCCCCCCCCCC(=O)O)C(=O)O)C(=O)NCC(=O)N[C@@H]([C@@H](C)O)C(=O)N[C@@H](C)C(=O)N[C@@H]([C@@H](C)O)C(=O)N1)[C@@H](C)O` [Compound 37, [19CD]-isoGlu-ED()GTATK()ATERLA-Aad-FLQRSSFGly(Me)-A-Ile(Me)-LSSTEVGSNT-Hyp-NH2] ({C20 diacid-γGlu}-EDGTATKATERLA[Aad]FLQRSSF[Sar]A[NMeI]LSSTEVGSNT[Hyp]-NH2; lactam 2-7), in data set [1], the “% degradation after 72 h at 40° C. pH6 phosphate” value is listed as less than 1%, the “% degradation after 14 days at 40° C. pH6 phosphate” value is listed as less than 1%, the “% degradation after 72 h at 40° C. pH7 phosphate” value turned out to be 3.0% and the “% degradation after 14 days at 40° C. pH7 phosphate” value is recorded as less than 1%. In addition, the half-maximal effective concentration (EC50) in data set [2] came to 0.116 nM. In addition, the EC50 in data set [3] stood at 0.031 nM. Also, in data set [4], the “Fibrillation (in buffer) pH4 acetate” value is listed as “FD”, the “Fibrillation (in buffer) pH7 histidine” value was “FND” and the “Fibrillation (in buffer) pH7 phosphate” value is given as “FND”. For the same compound, in data set [5] (Dose: 30 nmol/kg sc), the “Body weight reduction in % at 48 h” value is 4.3% and the “Food intake reduction in % at 48 h” value is listed as 24%.
For `CC[C@H](C)[C@@H](C(=O)N[C@@H](CC(C)C)C(=O)N[C@@H](CO)C(=O)N[C@@H](CO)C(=O)N[C@H](C(=O)N[C@@H](CCC(=O)O)C(=O)N[C@H](C(=O)NCC(=O)N[C@@H](CO)C(=O)N[C@@H](CC(N)=O)C(=O)N[C@H](C(=O)N1C[C@H](O)C[C@H]1C(N)=O)[C@@H](C)O)C(C)C)[C@@H](C)O)N(C)C(=O)[C@H](C)NC(=O)CN(C)C(=O)[C@H](Cc1ccccc1)NC(=O)[C@H](CO)NC(=O)[C@H](CO)NC(=O)[C@H](CCCNC(=N)N)NC(=O)[C@H](CCC(N)=O)NC(=O)[C@H](CC(C)C)NC(=O)[C@H](Cc1ccccc1)NC(=O)[C@H](CCCC(=O)O)NC(=O)[C@H](C)NC(=O)[C@H](CC(C)C)NC(=O)[C@H](CCCNC(=N)N)NC(=O)[C@H](CCC(N)=O)NC(=O)[C@@H](NC(=O)[C@H](C)NC(=O)[C@@H]1CCCCNC(=O)C[C@H](NC(=O)[C@H](CCCCN)NC(=O)CC[C@H](NC(=O)CCCCCCCCCCCCCCCCCCC(=O)O)C(=O)O)C(=O)NCC(=O)N[C@@H]([C@@H](C)O)C(=O)N[C@@H](C)C(=O)N[C@@H]([C@@H](C)O)C(=O)N1)[C@@H](C)O` [Compound 39, [19CD]-isoGlu-KD()GTATK()ATQRLA-Aad-FLQRSSF-Gly(Me)-Alle(Me)-LSSTEVGSNTHyp-NH2] ({C20 diacid-γGlu}-KDGTATKATQRLA[Aad]FLQRSSF[Sar]A[NMeI]LSSTEVGSNT[Hyp]-NH2; lactam 2-7), in data set [1], the “% degradation after 72 h at 40° C. pH4 acetate” value is less than 1%, the “% degradation after 72 h at 40° C. pH6 phosphate” value is given as less than 1% and the “% degradation after 72 h at 40° C. pH7 phosphate” value was less than 1%. For the same compound, the EC50 in data set [2] was found to be 0.094 nM. The EC50 in data set [3] stood at 0.024 nM. For the same compound, in data set [4], the “Fibrillation (in buffer) pH4 acetate” value is listed as “FD”, the “Fibrillation (in buffer) pH7 histidine” value is “FND” and the “Fibrillation (in buffer) pH7 phosphate” value was “FND”. For the same compound, in data set [5] (Dose: 30 nmol/kg sc), the “Body weight reduction in % at 48 h” value came out at 9.2% and the “Food intake reduction in % at 48 h” value is 76%.
